Experimental data published in patent US6497899B2, “Rapidly disintegrating and fast-dissolving solid dosage form” (Pfizer, Inc., priority 2000, dated 2002).

Assay: Dissolution testing of medicated tablets, USP/NF method 711, apparatus 2 at 50 RPM, UV absorption
Assay type: physicochemical
Details: medicated steam extruded starch solid dosage form, apparatus 2, 50 RPM
Experimental: Dosage form dissolution is measured by the United States Pharmacopeia/National Formulary (USP/NF) method 711 (United States Pharmacopeia, Rockville, Md., USA) and is summarized below:
The assembly from Apparatus 1 is used except that a paddle formed from a blade and a shaft is used as the stirring element. The shaft is positioned so that its axis is not more than 2 mm at any point from the vertical axis of the vessel and rotates smoothly without significant wobble. The vertical center line of the blade passes through the axis of the shaft so that the bottom of the blade is flush with the bottom of the shaft. The distance of 25±2 mm between the blade and the inside bottom of the vessel is maintained during the test. The metallic or suitably inert, rigid blade and shaft comprise a single entity that may be coated with a suitable inert coating. The dosage unit is allowed to sink to the bottom of the vessel before rotation of the blade is started. A small, loose piece of nonreactive material such as not more than a few turns of wire helix may be attached to dosage units that would otherwise float. Other validated sinker devices may be used. […]
The stated volume of the dissolution medium (±1%) is placed in the vessel of the apparatus. The dissolution medium is equilibrated to 37±0.5°C., and the thermometer removed. One solid dosage form is placed in the apparatus, taking care to exclude air bubbles from the surface of the dosage-form unit and either apparatus is immediately operated at a rate of 50 rpm. The concentration of dissolved drug in dissolution medium is measured over time by ultraviolet spectrophotometer to calculate the dissolution rate.
The medicated tablets were dissolved according to USP/NF method 711 using apparatus 2 at 50 RPM. Levels of medicament released were determined by UV absorption.

[1] = dissolution media Simulated Intestinal Fluid without enzyme
[2] = dissolution media deionized H2O, 37 C

| 1 minute release [1] [%] | 5 minute release [1] [%] | 10 minute release [1] [%] | 60 minute release [1] [%] | 1 minute release [2] [%] | 5 minute release [2] [%] | 60 minute release [2] [%] | SMILES |
| --- | --- | --- | --- | --- | --- | --- | --- |
| 33.4 | 69.6 | 82.8 | 101.4 | – | – | – | CC(C(=O)O)c1ccc2c(c1)[nH]c1ccc(Cl)cc12 (stereo not shown) [Carprofen] |
| – | – | – | – | 65.5 | 82.7 | 100.1 | Cl.Cl.O=C(O)COCCN1CCN(C(c2ccccc2)c2ccc(Cl)cc2)CC1 (stereo not shown) [Cetirizine.HCl] |
| – | – | – | – | 60.3 | 76.7 | 97.6 | OC(Cn1cncn1)(Cn1cncn1)c1ccc(F)cc1F [Diflucan, Fluconazole] |
